Results from PubChem BioAssay (NCI).
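GI50: concentration for 50% inhibition of growth. The concentration for full growth arrest is given as TGI.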

Assays:
Assay in all cases: NCI-60 cell line screen, 384-well format
[1] = system: MDA-MB-435 melanoma
[2] = system: HOP-62 NSCLC
[3] = system: A498 renal
[4] = system: HT29 colon
[5] = system: MDA-MB-468 breast
[6] = system: SK-MEL-5 melanoma
[7] = system: HCC-2998 colon
[8] = system: NCI-H23 lung
[9] = system: 786-0 renal
[10] = system: KM12 colon
[11] = system: CCRF-CEM leukemia
[12] = system: OVCAR-4 ovarian
[13] = system: DU-145 prostate
[14] = system: RXF 393 renal
[15] = system: IGROV1 ovarian
[16] = system: PC-3 prostate
[17] = system: T-47D breast
[18] = system: SF-295 CNS
[19] = system: RPMI-8226 leukemia
[20] = system: NCI-H322M lung
[21] = system: SF-268 CNS
[22] = system: MOLT-4 leukemia
[23] = system: SK-MEL-2 melanoma
[24] = system: U251 glioblastoma
[25] = system: MALME-3M melanoma
[26] = system: A549 NSCLC
[27] = system: SNB-75 CNS
[28] = system: NCI-H226 lung
[29] = system: CAKI-1 renal
[30] = system: SW-620 colon
[31] = system: SK-OV-3 ovarian
[32] = system: SNB-19 CNS
[33] = system: UACC-62 melanoma
[34] = system: NCI-H522 lung
[35] = system: BT-549 breast
[36] = system: TK-10 renal
[37] = system: EKVX NSCLC
[38] = system: SR leukemia
[39] = system: NCI/ADR-RES ovarian
[40] = system: HCT-15 colon
[41] = system: MDA-MB-231 breast
[42] = system: M14 melanoma
[43] = system: COLO 205 colon
[44] = system: HL-60(TB) leukemia
[45] = system: NCI-H460 NSCLC
[46] = system: UACC-257 melanoma
[47] = system: MCF7 breast
[48] = system: ACHN renal
[49] = system: OVCAR-5 ovarian
[50] = system: HOP-92 NSCLC
[51] = system: HS 578T breast
[52] = system: OVCAR-8 ovarian
[53] = system: SN12C renal
[54] = system: OVCAR-3 ovarian
[55] = system: SK-MEL-28 melanoma
[56] = system: SF-539 CNS

Compound `CN(C)CCNC(=O)c1cccc2cc3ccccc3nc12` has a GI50 [1] of 1640 nM, a TGI [1] of 3.23 µM and a GI50 [2] of 0.494 µM. The TGI [2] was 1850 nM, the GI50 [3] was 539 nM and the TGI [3] was 2000 nM. The GI50 [4] was 996 nM, the TGI [4] was 2210 nM and the GI50 [5] was 411 nM. For the same compound, the TGI [5] was 791 nM, the GI50 [6] was 1180 nM and the TGI [6] was 2420 nM. It also gave a GI50 [7] of 1.46 µM, a TGI [7] of 2860 nM and a GI50 [8] of 1260 nM. It also gave a TGI [8] of 2570 nM, a GI50 [9] of 1.07 µM and a TGI [9] of 3.04 µM. The GI50 [10] was 0.862 µM, the TGI [10] was 2440 nM and the GI50 [11] was 246 nM. For the same compound, the TGI [11] was 673 nM, the GI50 [12] was 1790 nM and the TGI [12] was 3.61 µM. The GI50 [13] was 1.52 µM, the TGI [13] was 3.12 µM and the GI50 [14] was 1.12 µM. It also gave a TGI [14] of 2360 nM, a GI50 [15] of 1140 nM and a TGI [15] of 2460 nM. It also gave a GI50 [16] of 1460 nM, a TGI [16] of 3.29 µM and a GI50 [17] of 2050 nM. It also gave a TGI [17] of 4.09 µM, a GI50 [18] of 974 nM and a TGI [18] of 2380 nM. It also gave a GI50 [19] of 506 nM, a TGI [19] of 1490 nM and a GI50 [20] of 1740 nM. It also gave a TGI [20] of 3.53 µM, a GI50 [21] of 1.15 µM and a TGI [21] of 2470 nM. The GI50 [22] was 169 nM, the TGI [22] was 310 nM and the GI50 [23] was 3.28 µM. It also gave a TGI [23] of 4.78 µM, a GI50 [24] of 741 nM and a TGI [24] of 2680 nM. For the same compound, the GI50 [25] was 932 nM, the TGI [25] was 2110 nM and the GI50 [26] was 619 nM. The TGI [26] was 1900 nM, the GI50 [27] was 806 nM and the TGI [27] was 2130 nM. For the same compound, the GI50 [28] was 0.898 µM, the TGI [28] was 2440 nM and the GI50 [29] was 1020 nM. It also gave a TGI [29] of 2490 nM, a GI50 [30] of 718 nM and a TGI [30] of 1990 nM. For the same compound, the GI50 [31] was 1200 nM, the TGI [31] was 3.29 µM and the GI50 [32] was 784 nM. It also gave a TGI [32] of 2690 nM, a GI50 [33] of 1000 nM and a TGI [33] of 2200 nM. The GI50 [34] was 1240 nM, the TGI [34] was 2510 nM and the GI50 [35] was 532 nM. For the same compound, the TGI [35] was 1.68 µM, the GI50 [36] was 1250 nM and the TGI [36] was 2950 nM. For the same compound, the GI50 [37] was 1740 nM, the TGI [37] was 3.67 µM and the GI50 [38] was 198 nM. For the same compound, the TGI [38] was 0.349 µM, the GI50 [39] was 876 nM and the TGI [39] was 2270 nM. It also gave a GI50 [40] of 628 nM, a TGI [40] of 2020 nM and a GI50 [41] of 958 nM. It also gave a TGI [41] of 2220 nM, a GI50 [42] of 1140 nM and a TGI [42] of 2380 nM. The GI50 [43] was 336 nM, the TGI [43] was 651 nM and the GI50 [44] was 252 nM. The TGI [44] was 462 nM, the GI50 [45] was 375 nM and the TGI [45] was 1250 nM. It also gave a GI50 [46] of 1650 nM, a TGI [46] of 3.05 µM and a GI50 [47] of 1120 nM. It also gave a TGI [47] of 4.17 µM, a GI50 [48] of 961 nM and a TGI [48] of 2280 nM. It also gave a GI50 [49] of 1440 nM, a TGI [49] of 3.69 µM and a GI50 [50] of 688 nM. For the same compound, the TGI [50] was 2150 nM, the GI50 [51] was 287 nM and the TGI [51] was 883 nM. The GI50 [52] was 611 nM, the TGI [52] was 1.84 µM and the GI50 [53] was 1.26 µM. For the same compound, the TGI [53] was 2740 nM, the GI50 [54] was 1340 nM and the TGI [54] was 2810 nM. For the same compound, the GI50 [55] was 1620 nM, the TGI [55] was 3.01 µM and the GI50 [56] was 449 nM. For the same compound, the TGI [56] was 1510 nM.
Compound `Nc1ccn([C@H]2C[C@@H](O)[C@@H](CO)S2)c(=O)n1` has a GI50 [1] of over 100000 nM, a TGI [1] of over 100 µM and a GI50 [2] of 21.8 µM. The TGI [2] was over 100000 nM, the GI50 [3] was over 100000 nM and the TGI [3] was over 100000 nM. The GI50 [4] was over 100000 nM, the TGI [4] was over 100000 nM and the GI50 [5] was over 100000 nM. The TGI [5] was over 100000 nM, the GI50 [6] was 804 nM and the TGI [6] was over 100000 nM. For the same compound, the GI50 [7] was 4.98 µM, the TGI [7] was over 100000 nM and the GI50 [8] was over 100000 nM. For the same compound, the TGI [8] was over 100000 nM, the GI50 [9] was 54.1 µM and the TGI [9] was over 100 µM. The GI50 [10] was 9.08 µM, the TGI [10] was over 100000 nM and the GI50 [11] was 55.2 nM. It also gave a TGI [11] of 862 nM, a GI50 [12] of over 100000 nM and a TGI [12] of over 100 µM. The GI50 [13] was 20.2 µM, the TGI [13] was over 100 µM and the GI50 [14] was 6.98 µM. It also gave a TGI [14] of over 100000 nM, a GI50 [15] of over 100000 nM and a TGI [15] of over 100000 nM. It also gave a GI50 [16] of over 100000 nM, a TGI [16] of over 100 µM and a GI50 [17] of over 100000 nM. It also gave a TGI [17] of over 100 µM, a GI50 [18] of over 100000 nM and a TGI [18] of over 100000 nM. It also gave a GI50 [19] of 368 nM, a TGI [19] of 1590 nM and a GI50 [20] of over 100000 nM. For the same compound, the TGI [20] was over 100 µM, the GI50 [21] was 54.4 µM and the TGI [21] was over 100000 nM. For the same compound, the TGI [22] was 27.1 nM, the GI50 [23] was over 100 µM and the TGI [23] was over 100 µM. For the same compound, the GI50 [24] was over 100000 nM, the TGI [24] was over 100000 nM and the GI50 [25] was over 100000 nM. The TGI [25] was over 100000 nM, the GI50 [26] was over 100000 nM and the TGI [26] was over 100000 nM. It also gave a GI50 [27] of over 100000 nM, a TGI [27] of over 100000 nM and a GI50 [28] of 96.9 µM. The TGI [28] was over 100000 nM, the GI50 [29] was over 100000 nM and the TGI [29] was over 100000 nM. For the same compound, the GI50 [30] was over 100000 nM, the TGI [30] was over 100000 nM and the GI50 [31] was over 100000 nM. For the same compound, the TGI [31] was over 100 µM, the GI50 [32] was 4990 nM and the TGI [32] was over 100000 nM. It also gave a GI50 [33] of over 100000 nM, a TGI [33] of over 100000 nM and a GI50 [34] of 113 nM. The TGI [34] was 1150 nM, the GI50 [35] was 896 nM and the TGI [35] was 26.3 µM. It also gave a GI50 [36] of over 100000 nM, a TGI [36] of over 100000 nM and a GI50 [37] of over 100000 nM. For the same compound, the TGI [37] was over 100 µM, the GI50 [38] was 2500 nM and the TGI [38] was 15.8 µM. It also gave a GI50 [39] of 1380 nM, a TGI [39] of over 100000 nM and a GI50 [40] of 1710 nM. For the same compound, the TGI [40] was over 100000 nM, the GI50 [41] was 2950 nM and the TGI [41] was over 100000 nM. For the same compound, the GI50 [42] was over 100000 nM, the TGI [42] was over 100000 nM and the GI50 [43] was over 100000 nM. For the same compound, the TGI [43] was over 100000 nM, the GI50 [44] was 306 nM and the TGI [44] was 1260 nM. The GI50 [45] was 204 nM, the TGI [45] was over 100000 nM and the GI50 [46] was over 100000 nM. For the same compound, the TGI [46] was over 100 µM, the GI50 [47] was over 100000 nM and the TGI [47] was over 100 µM. The GI50 [48] was over 100000 nM, the TGI [48] was over 100000 nM and the GI50 [49] was over 100000 nM. It also gave a TGI [49] of over 100 µM, a GI50 [50] of 2350 nM and a TGI [50] of over 100000 nM. The GI50 [51] was over 100000 nM, the TGI [51] was over 100000 nM and the GI50 [52] was 783 nM. For the same compound, the TGI [52] was 30.8 µM, the GI50 [53] was 11.6 µM and the TGI [53] was over 100000 nM. It also gave a GI50 [54] of 3290 nM, a TGI [54] of over 100000 nM and a GI50 [55] of over 100000 nM. For the same compound, the TGI [55] was over 100 µM, the GI50 [56] was over 100000 nM and the TGI [56] was over 100000 nM.
